# According to patent publication US11484559B2, “Kapok tree flower extract, and cosmetic, pharmaceutical or dermatological compositions containing same” (Laboratoires Expanscience, priority 2017, dated 2022):
# Columns and labels:
# Prostaglandin E2 (PGE2) = assay: Production of PGE2 in keratinocytes stimulated by PMA (ELISA); format: cell-based, human; conditions: indomethacin at 0.1 μM
# Protocol: The keratinocytes were then stimulated by 10 μg/ml of PMA (Phorbol Myristate Acetate) and incubated overnight with KPO extract or reference molecules. […] The significance was evaluated by means of one-factor variance analysis followed by a Tukey test: *p<0.05; ***p<0.001; ns: non-significant p>0.05.
# [1] = tested on: intracellular ROS (Reactive Oxygen Species); assay: Production of ROS in keratinocytes subjected to H2O2 stress (DCFH-DA probe); format: cell-based, human; conditions: for ROS Mean: H2O2 100 μM
# Protocol: The antioxidant potential of the KPO extract was evaluated in an assay model of intracellular ROS (Reactive Oxygen Species) induced by pro-oxidising H2O2 stress. Normal human epidermal keratinocytes were pre-incubated for 24 hours with KPO extract at 0.001%, 0.002% or 0.005% (d.e.) or reference anti-inflammatory molecules Quercetin at 10 μM or Vitamin C at 500 μM. The cell layer was then contacted with a DCFH-DA probe prior to induction of oxidative stress by 100 μM of H2O2. The amount of ROS produced was evaluated by measuring the fluorescence emitted when the probe is oxidised. The results were analysed statistically by one-factor variance analysis followed by a Tukey test: **p<0.01; ***p<0.001.
# TNC (Tenacin C) = assay: Gene expression in normal human dermal fibroblasts (RT-qPCR): TNC; format: cell-based; conditions: TGFβ1 5 ng/ml
# Protocol: (§1) The effect of the KPO extract was evaluated on the gene expression of markers involved in cell communication and in the organisation of the dermal extracellular matrix in the fibroblasts: normal human dermal fibroblasts were incubated for 6 hours or 24 hours with 0.0005% or 0.001% KPO extract (d.e.) or TGFβ1 at 5 ng/ml (positive control for dermal matrix induction markers). At the end of incubation, the gene expression of the following markers was analysed by RT-qPCR. • CTNNA1 (Catenin α): binds to cadherins to promote cellular interactions. • Syndecan: proteoglycan which consolidates cell/cell and cell/matrix interactions. • Laminin 5 (α3β3γ2): a molecule that assists adhesion to the basal membrane. • TNC (Tenacin C): extracellular matrix proteins involved in cohesion of the dermo-epidermal junction and which promote the synthesis of collagen VII. • SPARC: protein associated with various constituents of the extracellular matrix and which contributes to its organisation. • BGN (Biglycan): proteoglycan involved in the assembly of collagen fibres. • Versican: a major component of the ECM which plays a central role in the morphogenesis and maintenance of tissues. […]
# (§2) The results are given as relative quantities (RQ) with respect to the untreated control. […]
# BGN (Biglycan) = assay: Gene expression in normal human dermal fibroblasts (RT-qPCR): BGN; format: cell-based; conditions: TGFβ1 5 ng/ml
# Protocol: as §1, §2
# Elastin = assay: Gene expression in normal human dermal fibroblasts (RT-qPCR): Elastin; format: cell-based; conditions: TGFβ1 5 ng/ml
# Protocol: as §1, §2
# Collagen IV = assay: Gene expression in normal human dermal fibroblasts (RT-qPCR): Collagen IV; format: cell-based; conditions: TGFβ1 5 ng/ml
# Protocol: as §1, §2
# Versican = assay: Gene expression in normal human dermal fibroblasts (RT-qPCR): Versican; format: cell-based; conditions: TGFβ1 5 ng/ml
# Protocol: as §1, §2
# Collagen III = assay: Gene expression in normal human dermal fibroblasts (RT-qPCR): Collagen III; format: cell-based; conditions: TGFβ1 5 ng/ml
# Protocol: as §1, §2
# LOXL = assay: Gene expression in normal human dermal fibroblasts (RT-qPCR): LOXL; format: cell-based; conditions: TGFβ1 5 ng/ml
# Protocol: as §1, §2
# Dermatopontin = assay: Gene expression in normal human dermal fibroblasts (RT-qPCR): Dermatopontin; format: cell-based; conditions: TGFβ1 5 ng/ml
# Protocol: as §1, §2
# Fibronectin = assay: Gene expression in normal human dermal fibroblasts (RT-qPCR): Fibronectin; format: cell-based; conditions: TGFβ1 5 ng/ml
# Protocol: as §1, §2
# Collagen VII = assay: Gene expression in normal human dermal fibroblasts (RT-qPCR): Collagen VII; format: cell-based; conditions: TGFβ1 5 ng/ml
# Protocol: as §1, §2
# SPARC = assay: Gene expression in normal human dermal fibroblasts (RT-qPCR): SPARC; format: cell-based; conditions: TGFβ1 5 ng/ml
# Protocol: as §1, §2
# Collagen I = assay: Gene expression in normal human dermal fibroblasts (RT-qPCR): Collagen I; format: cell-based; conditions: TGFβ1 5 ng/ml
# Protocol: as §1, §2
# CTNNA1 (Catenin α) = assay: Gene expression in normal human dermal fibroblasts (RT-qPCR): CTNNA1; format: cell-based; conditions: TGFβ1 5 ng/ml
# Protocol: as §1, §2
# Syndecan = assay: Gene expression in normal human dermal fibroblasts (RT-qPCR): Syndecan; format: cell-based; conditions: TGFβ1 5 ng/ml
# Protocol: as §1, §2
compound,measurement,setting,value
"COc1ccc2c(c1)c(CC(=O)O)c(C)n2C(=O)c1ccc(Cl)cc1 [Indo, indomethacin]",PGE2 change vs PMA,Prostaglandin E2 (PGE2),−77% vs PMA ***
same,PGE2 Mean,Prostaglandin E2 (PGE2); PMA stimulated,181.780 (pg/ml)/OD neutral red
O=c1c(O)c(-c2ccc(O)c(O)c2)oc2cc(O)cc(O)c12 [Quercetin],ROS change vs H2O2,[1]; Quercetin at 10 μmol/l,−90% vs H2O2 ***
same,ROS Mean,[1]; Quercetin at 10 μmol/l,12959.361 Arbitrary Unit
"O=C1O[C@H]([C@@H](O)CO)C(O)=C1O [Vit C, Vitamin C]",ROS change vs H2O2,[1]; Vit C 500 μM,−90% vs H2O2 ***
same,ROS Mean,[1]; Vit C 500 μM,12807.703 Arbitrary Unit
TGFβ1: positive control for dermal matrix induction markers,TNC Degree of expression (Relative Quantity),TNC (Tenacin C); 6 h of treatment,0.94 ns
same,TNC Degree of expression (Relative Quantity),TNC (Tenacin C); 24 h of treatment,1.79 *
same,BGN Degree of expression (Relative Quantity),BGN (Biglycan); 6 h of treatment,1.28 ns
same,BGN Degree of expression (Relative Quantity),BGN (Biglycan); 24 h of treatment,2.92 ***
same,Elastin Degree of expression (Relative Quantity),Elastin; 6 h of treatment,0.72 ns
same,Elastin Degree of expression (Relative Quantity),Elastin; 24 h of treatment,3.65 **
same,Collagen IV Degree of expression (Relative Quantity),Collagen IV; 6 h of treatment,1.68 ***
same,Collagen IV Degree of expression (Relative Quantity),Collagen IV; 24 h of treatment,2.81 **
same,Versican Degree of expression (Relative Quantity),Versican; 6 h of treatment,1.61 ns
same,Versican Degree of expression (Relative Quantity),Versican; 24 h of treatment,2.87 **
same,Collagen III Degree of expression (Relative Quantity),Collagen III; 6 h of treatment,0.91 ns
same,Collagen III Degree of expression (Relative Quantity),Collagen III; 24 h of treatment,1.24 ns
same,LOXL Degree of expression (Relative Quantity),LOXL; 6 h of treatment,1.05 ns
same,LOXL Degree of expression (Relative Quantity),LOXL; 24 h of treatment,1.10 ns
same,Dermatopontin Degree of expression (Relative Quantity),Dermatopontin; 6 h of treatment,1.14 ns
same,Dermatopontin Degree of expression (Relative Quantity),Dermatopontin; 24 h of treatment,1.36 *
same,Fibronectin Degree of expression (Relative Quantity),Fibronectin; 6 h of treatment,1.09 ns
same,Fibronectin Degree of expression (Relative Quantity),Fibronectin; 24 h of treatment,2.12 *
same,Collagen VII Degree of expression (Relative Quantity),Collagen VII; 6 h of treatment,1.96 ***
same,Collagen VII Degree of expression (Relative Quantity),Collagen VII; 24 h of treatment,3.07 ***
same,SPARC Degree of expression (Relative Quantity),SPARC; 6 h of treatment,1.28 ns
same,SPARC Degree of expression (Relative Quantity),SPARC; 24 h of treatment,2.00 ***
same,Collagen I Degree of expression (Relative Quantity),Collagen I; 6 h of treatment,0.84 ns
same,Collagen I Degree of expression (Relative Quantity),Collagen I; 24 h of treatment,2.30 *
same,CTNNA1 Degree of expression (Relative Quantity),CTNNA1 (Catenin α); 6 h of treatment,1.07 ns
same,CTNNA1 Degree of expression (Relative Quantity),CTNNA1 (Catenin α); 24 h of treatment,1.07 ns
same,Syndecan Degree of expression (Relative Quantity),Syndecan; 6 h of treatment,1.85 ns
same,Syndecan Degree of expression (Relative Quantity),Syndecan; 24 h of treatment,8.08 ***
